What all share (type): biochemical
The target in one test is T1, TACE (Homo sapiens, UniProt P78536).
T1 construct: purchased Immunex
The test is described as follows: Procedure for Measuring TACE Inhibition. The note with it: for inhibition at 1 µM: read-out: TACE % inhibition at 1 micromolar; for IC50: read-out: TACE IC 50. The gist of the method:
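Single-concentration screen: test compound at 1 µM final, 10-min room-temperature preincubation with 1 µg/mL protease in Tris pH 7.4 buffer containing glycerol. Initial rate from linear fluorescence increase (340/420 nm) over 10 min after adding 100 µM peptidyl substrate; significance versus control rate by Dunnett's test.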

A further test has as its target T2, MMP 1 (Homo sapiens, UniProt P03956).
T2 construct: human recombinant fibroblast collagenase (truncated, mw= 18,828, WAR, Radnor)
T2 sequence (P03956 100-269 limits assumed): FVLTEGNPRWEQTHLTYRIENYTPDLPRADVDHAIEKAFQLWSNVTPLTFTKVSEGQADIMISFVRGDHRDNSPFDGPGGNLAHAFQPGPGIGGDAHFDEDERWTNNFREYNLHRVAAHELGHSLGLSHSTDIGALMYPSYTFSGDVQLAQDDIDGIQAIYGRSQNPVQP
Briefly: In Vitro Collagenase Assay. The note with it: human recombinant fibroblast collagenase; read-out: MMP 1 IC 50. The gist of the method: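 Collagenase (5 nM final) cleaves the quenched fluorogenic peptide Dnp-Pro-Cha-Gly-Cys(Me)-His-Ala-Lys(NMa)-NH2 (10 µM final) in HCBC buffer. Solvent is below 1.0%, and the reaction is started with substrate. Rate is taken from the fluorescence slope (r^2 >0.85), and drug-treated rates are compared with control by Dunnett's test.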

For a further test, the target named is T3, MMP 9 (Homo sapiens, UniProt P14780).
T3 construct: from tissue; host or cells: human neutrophils
T3 sequence (P14780 94-707): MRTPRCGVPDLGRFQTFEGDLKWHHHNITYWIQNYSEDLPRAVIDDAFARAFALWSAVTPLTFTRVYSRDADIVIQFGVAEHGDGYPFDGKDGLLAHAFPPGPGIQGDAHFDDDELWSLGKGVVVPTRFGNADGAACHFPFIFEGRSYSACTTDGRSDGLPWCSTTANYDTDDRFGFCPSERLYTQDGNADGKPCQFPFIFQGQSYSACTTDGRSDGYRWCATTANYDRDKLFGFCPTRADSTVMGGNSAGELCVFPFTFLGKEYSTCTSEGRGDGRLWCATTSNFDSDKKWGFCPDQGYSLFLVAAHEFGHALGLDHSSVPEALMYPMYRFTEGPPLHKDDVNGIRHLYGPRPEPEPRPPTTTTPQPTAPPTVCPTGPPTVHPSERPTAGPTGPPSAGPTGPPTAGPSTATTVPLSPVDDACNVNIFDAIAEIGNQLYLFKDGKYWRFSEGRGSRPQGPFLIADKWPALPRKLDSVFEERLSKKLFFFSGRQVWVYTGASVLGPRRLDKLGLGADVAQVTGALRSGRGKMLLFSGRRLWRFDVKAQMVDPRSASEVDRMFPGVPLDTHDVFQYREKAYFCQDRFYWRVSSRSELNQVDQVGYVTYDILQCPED
The test is described as follows: In Vitro Gelatinase Assay. The note with it: human neutrophil gelatinase B; read-out: MMP 9 IC 50. An outline of the steps: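 Human MMP-9 cleaves thiopeptide Ac-Pro-Leu-Gly(2-mercapto-4-methyl-pentanoyl)-Leu-Gly-OEt, with the released thiol reacting with DTNB. Substrate and DTNB were diluted together to 1 mM in 50 mM HEPES pH 7.5, 5 mM CaCl2. Rate came from the OD405 slope (r^2 >0.85), compared with control by Dunnett's test.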

A further test has as its target MMP 13 (Homo sapiens, UniProt P45452). Briefly: MMP 13 inhibition (IC50 / manual assay; method not described).

The structures appear in SMILES notation. Read-outs that look alike come from different tables or passages of the source.

T1 sequence (P78536 215-824): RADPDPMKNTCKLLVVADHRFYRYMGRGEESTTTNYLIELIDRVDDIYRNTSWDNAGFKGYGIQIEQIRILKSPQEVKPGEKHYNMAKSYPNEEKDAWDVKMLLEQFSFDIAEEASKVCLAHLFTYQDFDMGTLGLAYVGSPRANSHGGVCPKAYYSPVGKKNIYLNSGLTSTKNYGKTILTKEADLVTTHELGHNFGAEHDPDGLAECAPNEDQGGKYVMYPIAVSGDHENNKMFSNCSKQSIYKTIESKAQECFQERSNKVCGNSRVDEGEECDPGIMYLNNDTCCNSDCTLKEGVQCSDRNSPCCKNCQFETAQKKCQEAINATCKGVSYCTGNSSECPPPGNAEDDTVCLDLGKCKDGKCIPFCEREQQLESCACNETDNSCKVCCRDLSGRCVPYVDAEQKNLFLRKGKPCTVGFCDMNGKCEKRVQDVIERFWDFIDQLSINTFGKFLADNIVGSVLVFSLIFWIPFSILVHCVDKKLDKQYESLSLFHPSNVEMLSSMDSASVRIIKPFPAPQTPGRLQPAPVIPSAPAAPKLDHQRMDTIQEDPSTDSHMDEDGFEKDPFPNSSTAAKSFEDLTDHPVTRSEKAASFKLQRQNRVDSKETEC

On to `COc1ccc([S+]([O-])C(C(=O)NO)C(C)C)cc1` (centres unmarked) [Example 7, N-Hydroxy-2-(4-methoxy-benzenesulfinyl)-3-methyl-butyramide], for which the inhibition at 1 µM at TACE worked out at 33%. For the same molecule, the IC50 on MMP 1 stood at 844 nM; on MMP 9, 72.9 nM; on MMP 13 (read-out: MMP 13 IC 50), 42.1 nM.
For `COc1ccc(S(=O)(=O)C(C)(CC=Cc2ccccc2)C(=O)NO)cc1` (centres unmarked) [Example 56, 2-(4-methoxy-benzenesulfonyl)-2-methyl-5-phenyl-pent-4-enoic acid hydroxyamide], on TACE, the inhibition at 1 µM is 65%. Also, the results for the IC50 at MMP 1, on MMP 9 and at MMP 13 were 299 nM, 16 nM and 12 nM, respectively.
With `CC#CCC(CC#CC)(C(=O)NO)S(=O)(=O)c1ccc(OC)cc1` [Example 72, 2-(4-Methoxy-benzenesulfonyl)-2-but-2-ynyl-hex-4-ynoic acid hydroxyamide], on TACE, the inhibition at 1 µM came to 51.6%. For the same molecule, the IC50 on MMP 1 amounted to 117 nM; at MMP 9, 11 nM; on MMP 13 (read-out: MMP 13 IC 50) it was 1 nM.
As to `COc1ccc(S(=O)(=O)C2(C(=O)NO)CCN(Cc3ccc(C)cc3)CC2)cc1` [Example 86, 4-(4-methoxy-benzenesulfonyl)-1-(4-methylbenzyl)-piperidine-4-carboxylic acid hydroxamide], the IC50 at TACE came to 222 nM; at MMP 1, 494 nM; on MMP 9, 16.8 nM; on MMP 13 (read-out: MMP 13 IC 50) it was 1.5 nM.
Consider `C#CCC(Cc1cccnc1)(C(=O)NO)S(=O)(=O)c1ccc(OC)cc1` (centres unmarked) [Example 75, 2-(4-Methoxy-benzenesulfonyl)-2-pyridin-3-ylmethyl-pent-4-ynoic acid hydroxyamide], for which the inhibition at 1 µM on TACE was determined as 23.8%. The figures for the IC50 at MMP 1, on MMP 9 and at MMP 13 (read-out: MMP 13 IC 50) were 672 nM, 83.4 nM and 32.7 nM, respectively.
On to `COc1ccc(S(=O)(=O)C(C)(CC=C(C)C)C(=O)NO)cc1` (centres unmarked) [Example 13, 2-(4-Methoxy-benzenesulfonyl)-2,5-dimethyl-hex-4-enoic acid hydroxyamide], for which the IC50 at TACE came to 626 nM; at MMP 1, 239 nM; at MMP 9, 11 nM; on MMP 13 (read-out: MMP 13 IC 50) it was 14 nM.
Consider `CCC(Cc1ccc(OCCN2CCCCC2)cc1)(C(=O)NO)S(=O)(=O)c1ccc(OC)cc1` (centres unmarked) [Example 34, N-Hydroxy-2-(4-methoxy-benzenesulfonyl)-2-[4-(2-piperidin-1-yl-ethoxy)-benzyl]-butyramide], for which the inhibition at 1 µM on TACE is 28.1%. Further, the values for the IC50 on MMP 1, on MMP 9 and at MMP 13 (read-out: MMP 13 IC 50) were 520 nM, 34.7 nM and 26.1 nM, respectively.
As for `COc1ccc(CCN2CCC(C(=O)NO)(S(=O)(=O)c3ccc(OC)cc3)CC2)cc1` [Example 102, 4-(4-methoxy-benzenesulfonyl)-1-[2-(4-methoxyphenyl)-ethyl]-piperidine-4-carboxylic acid hydroxyamide], at TACE, the inhibition at 1 µM was 53%. In addition, the IC50 came to 662 nM at MMP 1, 33.7 nM on MMP 9 and 1.9 nM against MMP 13.
Regarding `COc1ccc(S(=O)(=O)C(C)(Cc2ccc(OCCCN3CCN(c4cccc(Cl)c4)CC3)cc2)C(=O)NO)cc1` (centres unmarked) [Example 23, 3-(4-{3-[4-(3-Chloro-phenyl)-piperazin-1-yl]-propoxy}-phenyl)-N-hydroxy-2-(4-methoxy-benzenesulfonyl)-2-methyl-propionamide], the inhibition at 1 µM on TACE turned out to be 40.6%. For the same molecule, the IC50 came out at 593 nM on MMP 1, 7.9 nM at MMP 9 and 4 nM on MMP 13 (read-out: MMP 13 IC 50).
In the case of `COc1ccc(S(=O)(=O)C2(C(=O)NO)CCN(Cc3ccc(Cl)c(Cl)c3)CC2)cc1` [Example 85, 1-(3,4-dichlorobenzyl) -4-(4-methoxy-benzenesulfonyl)-piperidine-4-carboxylic acid hydroxamide], the IC50 on TACE is 115 nM; on MMP 1, 450 nM; at MMP 9 it was 5.8 nM; at MMP 13 (read-out: MMP 13 IC 50), 1.5 nM.
`CCCCCCC(Cc1ccc(OCCN2CCCCCC2)cc1)(C(=O)NO)S(=O)(=O)c1ccc(OC)cc1` (centres unmarked) [Example 36, 2-[4-(2-Azepan-1-yl-ethoxy)-benzyl]-2-(4-Methoxy-benzenesulfonyl)-octanoic acid hydroxyamide]: the IC50 at TACE came to 826 nM; at MMP 1, 622 nM; at MMP 9, 83.8 nM; at MMP 13 (read-out: MMP 13 IC 50), 20.7 nM.
As to `COc1ccc(S(=O)(=O)C(C)(CC2CCCCC2)C(=O)NO)cc1` (centres unmarked) [Example 16, 3-Cyclohexyl-N-hydroxy-2-(4-methoxy-benzenesulfonyl)-2-methyl-propionamide], the IC50 on TACE came to 180 nM; at MMP 1, 325 nM; on MMP 9, 9 nM; on MMP 13 (read-out: MMP 13 IC 50), 24 nM.
Consider `COc1ccc(S(=O)(=O)C2(C(=O)NO)CCN(CC=C(C)C)CC2)cc1` [Example 89, 4-(4-methoxy-benzene-sulfonyl)-1-(3-methyl-but-2-enyl)piperidine-4-carboxylic acid hydroxamide], for which the inhibition at 1 µM on TACE turned out to be 49%. The IC50 at MMP 1 amounted to 1390 nM; at MMP 9, 38.6 nM; on MMP 13 (read-out: MMP 13 IC 50), 7 nM.
As for `COc1ccc(S(=O)(=O)C2(C(=O)NO)CCN(CCCOc3ccccc3)CC2)cc1` [Example 105, 4-(4-Methoxy-benzenesulfonyl)-1-(3-phenoxy-propyl)-piperidine-4-carboxylic acid hydroxyamide], the inhibition at 1 µM on TACE amounted to 50.2%. For the same molecule, the IC50 on MMP 1 stood at 1210 nM; on MMP 9, 44.2 nM; at MMP 13 (read-out: MMP 13 IC 50) it was 4.1 nM.

Source of the values: EP0970046B1, “N-HYDROXY-2-(ALKYL, ARYL, OR HETEROARYL SULFANYL, SULFINYL OR SULFONYL)-3-SUBSTITUTED ALKYL, ARYL OR HETEROARYLAMIDES AS MATRIX METALLOPROTEINASE INHIBITORS” (Wyeth Holdings Corporation, priority 1997, dated 1998).
